According to paper PMC8318587, “Structure-guided microbial targeting of antistaphylococcal prodrugs” (eLife, 2021):
“Also recorded” adds a separate entry of the source.

Columns and labels:
S. aureus = assay: Microfluidics live cell imaging of pro-fluorescent substrate activation; type: cell-based, Staphylococcus aureus; conditions: 10 µM pro-fluorescent substrate, 37°C; for Intracellular activation (fluorescence) in live S. aureus, in words: 30 min of observation
Protocol: Overnight cultures of S. aureus were grown in LB media, back diluted 1:500, and grown to early exponential phase (OD600 0.1–0.15), then washed in 1× PBS, and loaded on a bacterial CellASIC ONIX2 microfluidic plate. Prior to cell loading, the microfluidics plate lines were flushed with 1× PBS + 1% DMSO or 10 µM fluorescent pro-substrate in 1× PBS + 1% DMSO, and the plate was preincubated at 37°C. The microfluidics plate was loaded onto a Nikon Ti-E inverted microscope (Nikon Instruments, Inc) equipped with a 100× Plan N (N.A. = 1.45) Ph3 objective, SOLA SE Light Engine (Lumencor), heated control chamber (OKO Labs), and an ORCA-Flash4.0 sCMOS camera (Hammamatsu Photonics). The GFP filter set was purchased from Chroma Technology Corporation. Cells were loaded into the chamber until a single field of view contained 50–150 cells or cell clusters. […] Images were acquired every two min for a total of 44 min, and all experiments were undertaken at 37°C. The phase-contrast exposure time was kept constant at 200 ms, and the fluorescent channel exposure time was kept constant at 500 ms. For fluorescent images, the gain remained constant across all experiments. Image capture and analysis was performed using Nikon Elements Advanced Research software. Individual cells or clusters of cells were auto detected in the fluorescent channel using the intrinsic background fluorescence of each cell. […] Fluorescent intensity for each individual cell or cluster of cells was measured through the duration of the experiment and normalized to the area of the identified cell to yield the mean fluorescent intensity. Background cell autofluorescence was corrected by subtracting the average fluorescence across all identified objects from t = 0 through t = 10. Each experiment was performed in duplicate, with >50 individual cells or clusters analyzed in each experiment.

human sera = assay: Esterase substrate specificity, fluorogenic SAR library kinetics in serum; type: in vitro ADME
Protocol: (§1) Kinetic measurements were performed according to [White et al., 2018] with minor variation. Lyophilized human and mouse sera were resuspended according to manufacturer instructions in highly pure, filtered water at protein concentrations of 85 mg/mL and 70 mg/mL, respectively. One milliliter of resuspended serum was added to a 24 mL mastermix for a final concentration of 31.25 mM Tris pH 7.5, 312.5 mM NaCl, 1.25 mM MgCl2, 12.5% glycerol, and 3.4 mg/mL or 2.8 mg/mL protein for human and mouse serum, respectively. For purified proteins, 5 mL of a 75 µg/mL stock was added to yield a 20 mL mastermix containing 31.25 mM Tris pH 7.5, 312.5 mM NaCl, 1.25 mM MgCl2, 12.5% glycerol, and 18.75 µg/mL protein. Mastermix was stored on ice when not in use. Twenty microliters of mastermix was transferred to a black, 96-well half area microplate (Corning, CLS3993) and prewarmed at 37°C. Fluorogenic substrates were prepared as 10 mM stock solutions in 100% DMSO and were diluted in water to a starting concentration of 500 µM. Enzyme catalyzed substrate hydrolysis was initiated by addition of 5 µL substrate dilution in technical duplicate to the prewarmed serum or protein solution. Final assay concentrations were as follows: 25 mM Tris pH 7.5, 250 mM NaCl, 1 mM MgCl2, 10% glycerol, and protein at a concentration of 2.72 mg/mL (human serum), 2.24 mg/mL (mouse serum), or 15 µg/mL (FrmB, GloB). The resulting change in fluorescence (λex = 485 nm, λem = 520 nm) was followed for 15 min at 37°C, collecting data every 30 s on a FLUOstar Omega microplate reader (BMG Labtech). Fluorescence measurements were converted to molar concentrations using a fluorescein standard curve (2.5 nmol–0.6 pmol). The initial rates of reaction were measured three independent times with two technical replicates per measurement and fit to a line using GraphPad Prism (GraphPad Software, La Jolla, CA). Initial rates of reaction were plotted versus the concentration of substrate and fit to a standard Michaelis–Menten equation (v = Vmax[S]/(Km + [S])), yielding estimates of Vmax and Km. Values for kcat and kcat/Km were calculated based on amount of enzyme added when purified enzymes were used.

mouse sera = assay: as above; type: in vitro ADME
Protocol: as §1

SaFrmB [1] = biological target: T1, SaFrmB (Staphylococcus aureus, UniProt A0A0H3KFB7); assay: Esterase substrate specificity, fluorogenic SAR library kinetics; type: biochemical; conditions: for In vitro activity (catalytic efficiency) for FrmB, in words: fluorogenic ester substrate; for Km: SaFrmB 15 µg/mL, pH 7.5, 37°C
T1 construct: made in house; host or cells: E. coli BL21 (DE3)
T1 sequence (A0A0H3KFB7 1-253): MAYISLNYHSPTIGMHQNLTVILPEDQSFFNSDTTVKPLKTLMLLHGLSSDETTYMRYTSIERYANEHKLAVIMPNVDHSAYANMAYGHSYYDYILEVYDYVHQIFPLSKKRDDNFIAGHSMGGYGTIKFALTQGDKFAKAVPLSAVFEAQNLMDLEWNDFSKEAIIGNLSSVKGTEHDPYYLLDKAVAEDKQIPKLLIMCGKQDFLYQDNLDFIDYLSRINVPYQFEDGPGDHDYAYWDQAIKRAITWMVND
Protocol: as §1

SaGloB [2] = biological target: T2, SaGloB (Staphylococcus aureus, UniProt P0DY75); assay: as above; type: biochemical; conditions: for kcat/kuncat / Km: SaGloB; for kcat/kuncat: normalised to uncatalysed hydrolysis rate; for In vitro activity (catalytic efficiency) for GloB, in words / Km: fluorogenic ester substrate
T2 sequence (P0DY75 1-207): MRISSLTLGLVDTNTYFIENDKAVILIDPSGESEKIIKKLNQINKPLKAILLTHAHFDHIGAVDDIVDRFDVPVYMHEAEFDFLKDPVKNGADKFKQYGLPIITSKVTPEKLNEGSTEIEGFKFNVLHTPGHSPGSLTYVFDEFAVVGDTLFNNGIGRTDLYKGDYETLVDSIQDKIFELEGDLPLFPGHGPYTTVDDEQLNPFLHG
Protocol: as §1

GloB = assay: 4-Nitrophenyl ester substrate activity assay; type: biochemical, Staphylococcus aureus; conditions: 1 µM protein, 1 mM substrate, 37°C, A405
Protocol: (§2) 4-Nitrophenyl substrate-specific activity was determined in 50 µL reactions containing 25 mM Tris pH 7.5, 250 mM NaCl, 1 mM MnCl2, 10% glycerol, 1 µM protein, and 1 mM 4-nitrophenyl substrate. The tested substrates, 4-nitrophenyl acetate (Sigma, N8130), 4-nitrophenyl butyrate (Sigma N9876), and 4-nitrophenyl trimethylacetate (Sigma 135046), were resuspended in acetonitrile at 100 mM. Reactions without 4-nitrophenyl substrate were preincubated at 37°C for 10 min prior to assay initiation via substrate addition. Conversion of 4-nitrophenyl substrates to 4-nitrophenol was tracked photometrically at 37°C and A405nm. Experiments were performed in triplicate with technical duplicates.

FrmB = biological target: T3, FrmB (Staphylococcus aureus, UniProt A0A0H3KFB7); assay: 4-Nitrophenyl ester substrate activity assay; type: biochemical; conditions: 1 µM protein, 1 mM substrate, 37°C, A405
T3 construct: made in house; host or cells: E. coli BL21 (DE3)
Protocol: as §2

SaFrmB [3] = biological target: T1, SaFrmB; assay: Glyoxalase II activity assay (DTNB coupled); type: biochemical; conditions: 1 mM substrate, 37°C, 412 nm
Protocol: (§3) Glyoxalase II activity was assessed as previously with minor changes ([Mikati et al., 2020]; [Stamp et al., 2010]). Briefly, reactions were mixed to form a final concentration of 25 mM Tris pH 7.5, 250 mM NaCl, 1 mM MnCl2, 10% glycerol, 200 µM 5,5’-dithiobis(2-nitrobenzoic acid) (DTNB, Sigma D8130), 1 mM D-lactoylglutathione (Sigma L7140), and 0.15–0.63 µg protein (130–550 nM GloB, 100–430 nM FrmB). Protein concentrations were varied to ensure the reaction was linear across protein concentrations. Reactions without D-lactoylglutathione were pre-incubated at 37°C for 10 min prior to assay initiation with the addition of substrate. Release of glutathione from D-lactoylglutathione was quantified spectrophotometrically at 37°C and 412 nm through the conversion of DTNB to TNB. Experiments were performed in triplicate with technical duplicates.

SaGloB [4] = biological target: T2, SaGloB; assay: Glyoxalase II activity assay (DTNB coupled); type: biochemical; conditions: 1 mM substrate, 37°C, 412 nm
Protocol: as §3

SMILES	Km (human sera) [µM]	Km (mouse sera) [µM]	In vitro activity (catalytic efficiency) for FrmB, in words (SaFrmB [1])	In vitro activity (catalytic efficiency) for GloB, in words (SaGloB [2])	Intracellular activation (fluorescence) in live S. aureus, in words (S. aureus)	Km (SaFrmB [1]) [µM]	Hydrolysis of 4-nitrophenyl ester by GloB, in words (GloB)	Hydrolysis of 4-nitrophenyl ester by FrmB, in words (FrmB)	further results
COCC(=O)OCOc1ccc2c(c1)Oc1cc(OCOC(=O)COC)ccc1C21OC(=O)c2ccccc21 [1O]	64.1	> 50	high activity; also recorded: highest catalytic efficiency substrate	high activity; also recorded: highest catalytic efficiency substrate					Time to intracellular fluorescence saturation (S. aureus; images every 2 min): < 2 min; Vmax (human sera): 68.6 pmol*min-1*mg sera-1; kcat/kuncat (SaFrmB [1]; SaFrmB): 1.34 103; kcat/kuncat (SaGloB [2]): 38.6 103
CCCCCC(=O)OCOc1ccc2c(c1)Oc1cc(OCOC(=O)CCCCC)ccc1C21OC(=O)c2ccccc21 [3C]	> 50	> 50	moderate activity	moderate activity	slowly activates over the duration of the experiment	> 50			Km (SaGloB [2]): > 50 µM
CC(=O)Oc1ccc([N+](=O)[O-])cc1 [4-nitrophenyl acetate]							no detectable activity	modest activity	
CCCC(=O)Oc1ccc([N+](=O)[O-])cc1 [4-nitrophenyl butyrate]							no detectable activity	modest activity	
CC(C)(C)C(=O)Oc1ccc([N+](=O)[O-])cc1 [4-nitrophenyl trimethylacetate]							no detectable activity	no activity	
CCOCCC(=O)OCOc1ccc2c(c1)Oc1cc(OCOC(=O)CCOCC)ccc1C21OC(=O)c2ccccc21 [5O]	35.4	> 50	poor activity	moderate activity	never appreciably activates	> 50			Vmax (human sera): 2.25 pmol*min-1*mg sera-1; kcat/kuncat (SaGloB [2]): 17.0 103
CCC(CC)C(=O)OCOc1ccc2c(c1)Oc1cc(OCOC(=O)C(CC)CC)ccc1C21OC(=O)c2ccccc21 [9C]	> 50	12.3	poor activity	poor activity	never appreciably activates	> 50			Vmax (mouse sera): 3.18 pmol*min-1*mg sera-1; Km (SaGloB [2]): > 50 µM
CC(O)C(=O)SCC(NC(=O)CCC(N)C(=O)O)C(=O)NCC(=O)O (stereo not drawn) [S-lactoylglutathione]									Glyoxalase II activity (hydrolysis of substrate), in words (SaFrmB [3]): lacks appreciable glyoxalase activity; Glyoxalase II activity (hydrolysis of substrate), in words (SaGloB [4]): specific activity comparable to previously characterized microbial type II glyoxalases
